Data published in patent US11795169B2, “MAP4K4 inhibitors” (IMPERIAL COLLEGE INNOVATIONS LIMITED, priority 2017, dated 2023).
Like-named read-outs stand apart in the source and are kept apart here.

Assays:
Aurora B = Aurora B (Homo sapiens (Human), UniProt Q96GD4); test: Kinase selectivity panel: Aurora B; format: biochemical; details: for IC50: read-out: pIC50 Aurora B (converted)
Source text: (§1) Compounds of the present invention were screened for their inhibitory activity against MAP4K4, versus selected off-target hits found with early members of this chemical series. MAP4K4 kinase activity was monitored using the CisBio HTRF Transcreener ADP assay, acompetitive immunoassay with a reproducible Z′>0.6. In the detection step, endogenous ADP and d2-labeled ADP compete for binding an anti-ADP monoclonal antibody labelled with Eu^3+ cryptate. A ratiometric fluorescent read-out is used at 665 and 620 nm. […] Assays were run in Greiner low volume plates with a final reaction volume of 10 μl. The MAP4K4 inhibition data are provided in Table 33 below for selected compounds of the present invention. The data has been categorised based on the IC50 value of the compound as “A”, “B” or “C”.
(§2) The data in Table 34 also provides the fold selectivity of the two compounds in favour of MAP4K4 over the tested kinase. The fold selectivity is indicated in parenthesis.

[1] = target: human MAP4K4 kinase domain (Homo sapiens (Human), UniProt O95819); test: MAP4K4 kinase activity, CisBio HTRF Transcreener ADP assay; format: biochemical
Sequence of human MAP4K4 kinase domain (O95819 25-289): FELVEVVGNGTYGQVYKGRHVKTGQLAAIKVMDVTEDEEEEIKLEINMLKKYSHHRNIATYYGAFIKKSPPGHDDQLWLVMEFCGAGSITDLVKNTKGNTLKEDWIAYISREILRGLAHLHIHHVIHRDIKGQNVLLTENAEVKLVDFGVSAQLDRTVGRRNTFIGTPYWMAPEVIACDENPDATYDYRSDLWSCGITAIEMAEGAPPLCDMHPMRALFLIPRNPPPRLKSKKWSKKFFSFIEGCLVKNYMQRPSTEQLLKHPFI
Source text: as §1

KHS/MAP4K5 = KHS/MAP4K5 (Homo sapiens (Human), UniProt Q9Y4K4); test: Kinase selectivity panel: KHS/MAP4K5; format: biochemical; details: for IC50: read-out: pIC50 KHS/MAP4K5 (converted)
Source text: as §1, §2

VEGFR = test: Kinase selectivity panel: VEGFR; format: biochemical
Protocol: (§3) In the detection step, endogenous ADP and d2-labeled ADP compete for binding an anti-ADP monoclonal antibody labelled with Eu^3+ cryptate. […] Assays were run in Greiner low volume plates with a final reaction volume of 10 μl.
(§4) The fold selectivity is indicated in parenthesis.

GCK/MAP4K2 = GCK/MAP4K2 (Homo sapiens (Human), UniProt Q12851); test: Kinase selectivity panel: GCK/MAP4K2; format: biochemical; details: for IC50: read-out: pIC50 GCK/MAP4K2 (converted)
Sequence of GCK/MAP4K2 (Q12851 whole entry): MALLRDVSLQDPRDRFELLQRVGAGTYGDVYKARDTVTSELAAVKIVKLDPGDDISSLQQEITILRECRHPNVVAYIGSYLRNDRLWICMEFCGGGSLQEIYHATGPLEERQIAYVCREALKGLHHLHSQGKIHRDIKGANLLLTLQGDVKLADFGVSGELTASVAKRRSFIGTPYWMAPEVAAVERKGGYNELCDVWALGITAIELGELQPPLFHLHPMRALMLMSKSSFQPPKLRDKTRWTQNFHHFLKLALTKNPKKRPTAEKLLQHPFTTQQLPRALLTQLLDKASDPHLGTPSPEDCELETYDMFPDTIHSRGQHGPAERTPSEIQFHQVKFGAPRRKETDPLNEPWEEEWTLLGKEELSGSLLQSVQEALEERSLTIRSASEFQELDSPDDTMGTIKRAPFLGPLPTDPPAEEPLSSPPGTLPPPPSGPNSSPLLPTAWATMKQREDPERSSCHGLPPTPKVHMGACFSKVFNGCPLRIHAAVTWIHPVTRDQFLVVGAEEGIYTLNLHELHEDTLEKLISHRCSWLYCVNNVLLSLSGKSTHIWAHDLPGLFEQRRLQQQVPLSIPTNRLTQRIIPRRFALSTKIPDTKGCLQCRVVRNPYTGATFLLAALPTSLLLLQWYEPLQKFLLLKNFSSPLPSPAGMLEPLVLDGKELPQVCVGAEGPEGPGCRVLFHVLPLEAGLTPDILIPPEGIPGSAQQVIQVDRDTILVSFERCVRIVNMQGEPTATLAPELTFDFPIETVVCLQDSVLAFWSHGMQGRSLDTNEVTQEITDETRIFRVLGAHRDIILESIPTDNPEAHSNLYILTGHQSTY
Source text: as §1, §2

MLK1/MAP3K9 = MLK1/MAP3K9 (Homo sapiens (Human), UniProt P80192); test: Kinase selectivity panel: MLK1/MAP3K9; format: biochemical; details: for IC50: read-out: pIC50 MLK1/MAP3K9 (converted)
Source text: as §1, §2

MLK3/MAP3K11 = MLK3/MAP3K11 (Homo sapiens (Human), UniProt Q16584); test: Kinase selectivity panel: MLK3/MAP3K11; format: biochemical; details: for IC50: read-out: pIC50 MLK3/MAP3K11 (converted)
Sequence of MLK3/MAP3K11 (Q16584 whole entry): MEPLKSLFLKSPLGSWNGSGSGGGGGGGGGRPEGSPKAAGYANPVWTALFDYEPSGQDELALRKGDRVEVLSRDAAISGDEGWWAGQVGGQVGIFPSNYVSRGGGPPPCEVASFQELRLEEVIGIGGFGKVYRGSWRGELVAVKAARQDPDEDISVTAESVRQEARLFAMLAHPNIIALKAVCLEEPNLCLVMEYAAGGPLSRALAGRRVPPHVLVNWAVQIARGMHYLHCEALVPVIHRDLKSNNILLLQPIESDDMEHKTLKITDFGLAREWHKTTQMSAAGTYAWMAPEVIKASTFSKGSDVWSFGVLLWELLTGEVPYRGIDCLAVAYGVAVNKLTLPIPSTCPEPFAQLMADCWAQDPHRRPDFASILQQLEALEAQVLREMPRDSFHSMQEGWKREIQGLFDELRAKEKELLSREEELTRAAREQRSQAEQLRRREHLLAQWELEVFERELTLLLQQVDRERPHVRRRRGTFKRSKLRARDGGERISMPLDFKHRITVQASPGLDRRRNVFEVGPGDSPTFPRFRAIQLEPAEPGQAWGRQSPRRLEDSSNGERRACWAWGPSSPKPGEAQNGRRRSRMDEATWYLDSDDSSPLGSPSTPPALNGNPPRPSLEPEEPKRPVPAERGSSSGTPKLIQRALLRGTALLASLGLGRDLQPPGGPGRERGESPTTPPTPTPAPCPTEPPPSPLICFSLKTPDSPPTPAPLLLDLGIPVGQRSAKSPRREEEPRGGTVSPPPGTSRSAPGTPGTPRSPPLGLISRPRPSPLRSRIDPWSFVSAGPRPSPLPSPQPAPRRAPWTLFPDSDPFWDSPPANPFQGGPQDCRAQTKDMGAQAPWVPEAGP
Source text: as §1, §2

ABL1 = ABL1 (Homo sapiens (Human), UniProt P00519); test: Kinase selectivity panel: ABL1; format: biochemical; details: for IC50: read-out: pIC50 ABL1 (converted)
Source text: as §1, §2

TNIK/MAP4K7 = TNIK/MAP4K7 (Homo sapiens (Human), UniProt Q9UKE5); test: Kinase selectivity panel: TNIK/MAP4K7; format: biochemical; details: read-out: pIC50 TNIK/MAP4K7 (converted)
Source text: as §1, §2

GSK3β = GSK3β (Homo sapiens (Human), UniProt P49841); test: Kinase selectivity panel: GSK3β; format: biochemical; details: for IC50: read-out: pIC50 GSK3β (converted)
Sequence of GSK3β (P49841 whole entry, species assumed): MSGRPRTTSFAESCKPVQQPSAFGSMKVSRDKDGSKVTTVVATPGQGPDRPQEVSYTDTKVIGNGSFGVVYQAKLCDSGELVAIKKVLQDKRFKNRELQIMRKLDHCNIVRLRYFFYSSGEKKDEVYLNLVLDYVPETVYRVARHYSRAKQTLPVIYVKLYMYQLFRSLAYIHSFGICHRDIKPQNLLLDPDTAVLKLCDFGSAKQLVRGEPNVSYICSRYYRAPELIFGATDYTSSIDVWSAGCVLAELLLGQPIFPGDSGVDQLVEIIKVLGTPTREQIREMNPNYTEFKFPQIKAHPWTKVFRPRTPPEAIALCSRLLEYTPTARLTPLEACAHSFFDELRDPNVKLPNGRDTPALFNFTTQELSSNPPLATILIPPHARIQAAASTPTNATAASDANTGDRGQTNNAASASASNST
Source text: as §1, §2

FLT3 = FLT3 (Homo sapiens (Human), UniProt P36888); test: Kinase selectivity panel: FLT3; format: biochemical; details: for IC50: read-out: pIC50 FLT3 (converted)
Source text: as §1, §2

GLK/MAP4K3 = GLK/MAP4K3 (Homo sapiens (Human), UniProt Q8IVH8); test: Kinase selectivity panel: GLK/MAP4K3; format: biochemical; details: for IC50: read-out: pIC50 GLK/MAP4K3 (converted)
Sequence of GLK/MAP4K3 (Q8IVH8 whole entry): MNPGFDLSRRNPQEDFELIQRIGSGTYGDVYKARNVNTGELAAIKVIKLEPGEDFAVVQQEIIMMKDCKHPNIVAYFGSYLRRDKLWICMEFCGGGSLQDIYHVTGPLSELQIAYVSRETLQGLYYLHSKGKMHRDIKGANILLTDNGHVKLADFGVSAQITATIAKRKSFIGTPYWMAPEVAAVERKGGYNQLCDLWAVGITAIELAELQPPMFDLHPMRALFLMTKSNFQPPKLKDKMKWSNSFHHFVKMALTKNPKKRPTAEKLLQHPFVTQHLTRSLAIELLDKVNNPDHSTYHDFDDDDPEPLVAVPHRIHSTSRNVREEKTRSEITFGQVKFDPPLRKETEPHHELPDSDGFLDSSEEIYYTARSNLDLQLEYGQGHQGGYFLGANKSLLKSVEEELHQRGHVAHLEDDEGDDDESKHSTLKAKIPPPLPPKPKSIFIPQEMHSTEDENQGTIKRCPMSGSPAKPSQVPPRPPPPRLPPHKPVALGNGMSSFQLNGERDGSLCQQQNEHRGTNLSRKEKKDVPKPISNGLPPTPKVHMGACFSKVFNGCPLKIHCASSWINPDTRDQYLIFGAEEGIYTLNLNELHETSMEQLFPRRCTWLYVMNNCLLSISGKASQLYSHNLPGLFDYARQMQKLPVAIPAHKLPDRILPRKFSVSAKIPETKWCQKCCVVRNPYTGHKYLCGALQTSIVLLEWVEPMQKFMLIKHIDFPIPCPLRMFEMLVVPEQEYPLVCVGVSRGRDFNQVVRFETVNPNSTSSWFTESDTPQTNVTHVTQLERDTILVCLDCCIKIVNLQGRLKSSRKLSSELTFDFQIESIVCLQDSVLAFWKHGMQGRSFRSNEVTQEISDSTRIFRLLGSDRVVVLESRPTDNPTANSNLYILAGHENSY
Source text: as §1, §2

MINK1/MAP4K6 = MINK1/MAP4K6 (Homo sapiens (Human), UniProt Q8N4C8); test: Kinase selectivity panel: MINK1/MAP4K6; format: biochemical; details: read-out: pIC50 MINK1/MAP4K6 (converted)
Sequence of MINK1/MAP4K6 (Q8N4C8 whole entry): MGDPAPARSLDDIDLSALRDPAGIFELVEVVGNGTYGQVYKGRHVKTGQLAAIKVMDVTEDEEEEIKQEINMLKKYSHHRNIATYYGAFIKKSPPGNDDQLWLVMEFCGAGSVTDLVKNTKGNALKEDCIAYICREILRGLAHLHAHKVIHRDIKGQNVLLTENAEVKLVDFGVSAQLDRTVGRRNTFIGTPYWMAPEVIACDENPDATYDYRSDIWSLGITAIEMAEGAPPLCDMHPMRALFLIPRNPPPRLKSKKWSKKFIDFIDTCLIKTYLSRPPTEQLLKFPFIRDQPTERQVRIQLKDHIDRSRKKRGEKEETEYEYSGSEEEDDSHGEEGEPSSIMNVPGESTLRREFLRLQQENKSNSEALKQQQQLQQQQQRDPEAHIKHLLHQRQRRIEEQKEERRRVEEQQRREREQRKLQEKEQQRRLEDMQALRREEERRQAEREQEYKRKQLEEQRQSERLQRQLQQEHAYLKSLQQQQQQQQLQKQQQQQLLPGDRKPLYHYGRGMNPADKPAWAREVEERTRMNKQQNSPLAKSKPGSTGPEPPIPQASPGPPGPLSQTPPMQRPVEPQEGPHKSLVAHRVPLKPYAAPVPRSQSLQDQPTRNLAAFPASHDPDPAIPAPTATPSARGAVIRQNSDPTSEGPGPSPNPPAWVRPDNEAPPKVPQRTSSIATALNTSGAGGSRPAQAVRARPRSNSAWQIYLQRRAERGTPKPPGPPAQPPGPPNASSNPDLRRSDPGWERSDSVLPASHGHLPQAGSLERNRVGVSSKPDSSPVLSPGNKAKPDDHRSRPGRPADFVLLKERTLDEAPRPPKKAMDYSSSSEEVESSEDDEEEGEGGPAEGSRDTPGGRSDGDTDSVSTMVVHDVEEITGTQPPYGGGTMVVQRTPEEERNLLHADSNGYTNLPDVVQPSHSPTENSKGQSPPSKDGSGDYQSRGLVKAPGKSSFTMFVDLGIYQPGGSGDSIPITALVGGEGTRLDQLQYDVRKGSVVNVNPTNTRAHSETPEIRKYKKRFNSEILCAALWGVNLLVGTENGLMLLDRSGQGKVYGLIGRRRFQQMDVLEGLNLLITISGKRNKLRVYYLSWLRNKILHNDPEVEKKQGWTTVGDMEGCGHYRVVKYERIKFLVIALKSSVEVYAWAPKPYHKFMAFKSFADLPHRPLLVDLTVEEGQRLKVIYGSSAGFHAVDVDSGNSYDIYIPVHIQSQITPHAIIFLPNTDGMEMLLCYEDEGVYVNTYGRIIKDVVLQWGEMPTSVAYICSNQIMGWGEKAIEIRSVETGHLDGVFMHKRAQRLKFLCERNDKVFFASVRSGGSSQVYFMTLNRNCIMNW
Source text: as §1, §2

[2] = tested on: CorV.4U cardiomyocytes (hiPSC-CMs); test: Protection of CorV.4U cardiomyocytes from H2O2 or menadione (luminescent cell viability assay, human cardiac troponin assay); format: cell-based; details: Homo sapiens, Cardiomyocyte; read-out: EC50, protection of human cardiomyocytes
Source text: To substantiate the hypothesis that pharmacological inhibition of MAP4K4 would confer resistance to cell death in human cardiomyocytes, cytoprotection was next assessed using hiPSC-CMs.

NUAK = test: Kinase selectivity panel: NUAK; format: biochemical
Protocol: as §3, §4

[3] = ATP at Km (10 μM), 0.5 nM kinase domain, 2 h, read-out: MAP4K4
[4] = read-out: pIC50 MAP4K4 (converted)

Sequence of Aurora B (Q96GD4 whole entry): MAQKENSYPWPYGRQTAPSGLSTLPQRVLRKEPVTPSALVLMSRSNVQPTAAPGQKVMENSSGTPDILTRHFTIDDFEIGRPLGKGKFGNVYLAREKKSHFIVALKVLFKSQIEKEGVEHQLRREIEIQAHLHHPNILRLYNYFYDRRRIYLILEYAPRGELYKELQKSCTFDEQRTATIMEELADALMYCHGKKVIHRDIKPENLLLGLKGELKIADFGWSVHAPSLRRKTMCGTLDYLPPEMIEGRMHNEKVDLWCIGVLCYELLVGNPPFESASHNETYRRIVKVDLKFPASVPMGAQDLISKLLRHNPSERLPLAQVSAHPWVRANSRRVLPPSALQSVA

SMILES | fold selectivity for MAP4K4 over Aurora B (Aurora B) | IC50 (Aurora B) [nM] | IC50 [1, 3] [nM] | IC50 [1, 4] [nM] | fold selectivity for MAP4K4 over KHS/MAP4K5 (KHS/MAP4K5) | IC50 (KHS/MAP4K5) [nM] | fold selectivity for MAP4K4 over VEGFR (VEGFR) | pIC50 VEGFR (VEGFR) | fold selectivity for MAP4K4 over GCK/MAP4K2 (GCK/MAP4K2) | IC50 (GCK/MAP4K2) [nM] | fold selectivity for MAP4K4 over MLK1/MAP3K9 (MLK1/MAP3K9) | IC50 (MLK1/MAP3K9) [nM] | fold selectivity for MAP4K4 over ABL1 (ABL1) | IC50 (ABL1) [nM] | IC50 (TNIK/MAP4K7) [nM] | fold selectivity for MAP4K4 over FLT3 (FLT3) | IC50 (FLT3) [nM] | fold selectivity for MAP4K4 over GLK/MAP4K3 (GLK/MAP4K3) | IC50 (GLK/MAP4K3) [nM] | IC50 (MINK1/MAP4K6) [nM] | further results
COc1cccc(-c2cn(-c3ccccc3)c3nc[nH]c(=O)c23)c1 [Ex-22] | (199) fold | 31600 | 100 to 1000 | 158 | (199) fold | 437 | (79) fold | 4.9 | (50) fold | 7940 | (25) fold | 3980 | (199) fold | 31600 | 200 | (199) fold | 31600 | (199) fold | 31600 | 6.61 | fold selectivity for MAP4K4 over MLK3/MAP3K11 (MLK3/MAP3K11): (199) fold; IC50 (MLK3/MAP3K11): 31600 nM; fold selectivity for MAP4K4 over GSK3β (GSK3β): (199) fold; IC50 (GSK3β): 31600 nM
O=c1[nH]cnc2c1c(-c1ccc(OCCCN3CCOCC3)cc1)cn2-c1ccccc1 [Ex-27] | (1584) fold | 10000 | ≤ 100 | 6.31 | (6) fold | 39.8 | (125) fold | 6.1 | (31) fold | 200 | (13) fold | 79.4 | (501) fold | 3160 | 10 | (1258) fold | 7940 | (251) fold | 1580 | 6.31 | fold selectivity for MAP4K4 over GSK3β (GSK3β): (5011) fold; IC50 (GSK3β): 31600 nM
CC(C)(O)CCOc1ccc(-c2cn(-c3ccccc3)c3nc[nH]c(=O)c23)cc1 [Ex-40, 5-(4-(3-hydroxy-3-methylbutoxy)phenyl)-7-phenyl-3,7-dihydro-4H-pyrrolo[2,3-d]pyrimidin-4-one] | – | – | ≤ 100 | – | – | – | – | – | – | – | – | – | – | – | – | – | – | – | – | – | EC50 [2]: < 1000 nM
O=c1[nH]cnc2c1c(-c1ccc(OCCO)cc1F)cn2-c1ccccc1 [Ex-56, 5-[2-Fluoro-4-(2-hydroxy-ethoxy)-phenyl]-7-phenyl-3,7-dihydro-pyrrolo[2,3-d]pyrimidin-4-one] | (1258) fold | 6310 | ≤ 100 | 5.01 | (199) fold | 1000 | (6309) fold | 4.5 | (79) fold | 398 | (39) fold | 200 | (398) fold | 2000 | 20 | (3162) fold | 15800 | (6309) fold | 31600 | 7.94 | fold selectivity for MAP4K4 over MLK3/MAP3K11 (MLK3/MAP3K11): (39) fold; IC50 (MLK3/MAP3K11): 200 nM; fold selectivity for MAP4K4 over NUAK (NUAK): (501) fold; pIC50 NUAK (NUAK): 5.6
O=C1NCCN1c1ccc(-c2cn(-c3ccccc3)c3nc[nH]c(=O)c23)cc1 [Ex-61] | (31622) fold | 31600 | ≤ 100 | 1.58 | (316) fold | 1000 | (501) fold | 6.3 | (316) fold | 316 | (63) fold | 63.1 | (794) fold | 794 | 5.01 | (31622) fold | 31600 | (31622) fold | 31600 | 7.94 | fold selectivity for MAP4K4 over MLK3/MAP3K11 (MLK3/MAP3K11): (63) fold; IC50 (MLK3/MAP3K11): 63.1 nM; fold selectivity for MAP4K4 over NUAK (NUAK): (63) fold; pIC50 NUAK (NUAK): 7.2; fold selectivity for MAP4K4 over GSK3β (GSK3β): (31622) fold; IC50 (GSK3β): 31600 nM
O=C(O)c1cccc(-c2cn(-c3ccccc3)c3c(=O)[nH]cnc23)c1 [Ex-101, 3-(4-Oxo-5-phenyl-4,5-dihydro-3H-pyrrolo[3,2-d]pyrimidin-7-yl)-benzoic acid] | – | – | > 1000 | – | – | – | – | – | – | – | – | – | – | – | – | – | – | – | – | – | –
O=C(O)c1ccc(-c2cn(-c3ccccc3)c3c(=O)[nH]cnc23)cc1 [Ex-102] | – | – | 100 to 1000 | – | – | – | – | – | – | – | – | – | – | – | – | – | – | – | – | – | –
CC(C)(O)CCOc1ccc(-c2cn(-c3ccccc3)c3nc[nH]c(=O)c23)c(F)c1 [Ex-107, 5-(2-fluoro-4-(3-hydroxy-3-methylbutoxy)phenyl)-7-phenyl-3,7-dihydro-4H-pyrrolo[2,3-d]pyrimidin-4-one] | – | – | – | – | – | – | – | – | – | – | – | – | – | – | – | – | – | – | – | – | EC50 [2]: < 1000 nM
CC(C)(O)CCOc1ccc(-c2cn(-c3ccccc3)c3nc[nH]c(=O)c23)cc1F [Ex-123] | – | – | – | – | – | – | – | – | – | – | – | – | – | – | – | – | – | – | – | – | EC50 [2]: < 1000 nM
CC(C)(O)CCOc1ccc(-c2cn(-c3ccccc3)c3nc[nH]c(=O)c23)cc1C#N [Ex-128] | – | – | – | – | – | – | – | – | – | – | – | – | – | – | – | – | – | – | – | – | EC50 [2]: < 1000 nM
